Test results published in patent publication US20230133657A1, “THE USE OF MENTHOL FOR THE PREPARATION OF A TOPICAL COMPOSITION TO IMPROVE NEURODEGENERATIVE DISEASE AND STROKE” (CHINA MEDICAL UNIVERSITY, priority 2020, published 2023).

Legend:
[1] = system: Parkinson's disease mice (MPTP); assay: Immunohistochemical (IHC) staining of TH in substantia nigra; type: in vivo, mouse; details: forepaws soaked in 8% menthol
Description: Laboratory mice are divided into three groups: “Control” consisting of normal mice; “MPTP” consisting of Parkinson's disease mice fed with MPTP for creation of a disease model; “MPTP+8% ME” consisting of Parkinson's disease mice which are fed with MPTP for creation of a disease model and whose forepaws are soaked in 8% menthol. For administration of menthol, two forepaws of each “MPTP+8% ME” mouse are soaked in 8% (wt %) menthol solution for 10 seconds per day from Day 1 to Day 5 and from Day 8 to Day 10, respectively. For creation of a Parkinson's disease mouse model, MPTP (daily dosage: 10 mg/kg) is injected into “MPTP” and “MPTP+8% ME” mice through the intraperitoneal (I.P.) injection on three consecutive days from Day 3 to Day 5. By Day 10, the endurance exercise test, the dopamine assay and the immunohistochemical staining are conducted for any improvement in the symptom of Parkinson's disease due to menthol. The level of TH in a mouse's substantia nigra is tested through IHC staining (FIG. 1D). […] A mouse's nerve cells containing TH for generation of dopamine could be damaged due to Parkinson's disease.

[2] = system: ischemic stroke mice (MCAO); assay: Adhesive removal test, ischemic stroke mouse model; type: in vivo
Description: Laboratory mice are divided into four groups: “Control” consisting of mice processed through MCAO for the ischemic stroke; “Water” consisting of mice which are processed for the ischemic stroke through MCAO and whose limbs are soaked in water; “MCAO+8% ME” consisting of mice which are processed for the ischemic stroke through MCAO and whose limbs are soaked in 8% menthol; “MCAO+16% ME” consisting of mice which are processed for the ischemic stroke through MCAO and whose limbs are soaked in 16% menthol. In Embodiment 2, menthol is prepared with 95% ethanol. Referring to the experiment schedule in FIG. 2A, mice are sacrificed on Day 7 for following analyses. Mice are processed for the ischemic stroke through MCAO on Day 0 and administrated with menthol once per day from Day 0 to Day 6. On the day of processing mice through MCAO, the limbs of a mouse resting 20 minutes after the operation are soaked in menthol for one minute; a mouse's limbs are soaked in menthol for 15 seconds only from Day 2 to Day 6; comparatively, a Water mouse's limbs are soaked in water. The sensorimotor nerve function test is conducted for mice one day before MCAO processing (i.e., pre-MCAO) and 1, 3 and 6 days after MCAO processing; the cerebral infarction volume is measured for checking any improvement in the stroke due to menthol on Day 7 after MCAO processing. The adhesive removal test is conducted on Day 1, 3 and 6 and the test results are compared with status at “pre-MCAO”. As shown in the experimental process, the time of a mouse finding and removing 4 (mm)×4 (mm) stickers, which have been adhered to its forepaws outside a test cage, is recorded (FIG. 2C-1, FIG. 2C-2) for statistic analysis as described in Section 2.1 (*p<0.05; **p<0.01; ***p<0.001). […] As shown in FIGS. 4B-1 and 4B-2, the test results are analyzed with the one-way ANOVA for further reviews through the multiple comparison analysis (Duncan's method) and statistics of between-group variances (*p<0.05; *: comparison with the “Water” group; comparison with the “16% ME” group; comparison with the “8% ME” group). […]

[3] = system: ischemic stroke mice (MCAO); assay: Measurement of the cerebral infarction volume (TTC staining); type: in vivo, mouse
Description: Laboratory mice are divided into four groups: “Control” consisting of mice processed through MCAO for the ischemic stroke; “Water” consisting of mice which are processed for the ischemic stroke through MCAO and whose limbs are soaked in water; “MCAO+8% ME” consisting of mice which are processed for the ischemic stroke through MCAO and whose limbs are soaked in 8% menthol; “MCAO+16% ME” consisting of mice which are processed for the ischemic stroke through MCAO and whose limbs are soaked in 16% menthol. In Embodiment 2, menthol is prepared with 95% ethanol. Referring to the experiment schedule in FIG. 2A, mice are sacrificed on Day 7 for following analyses. Mice are processed for the ischemic stroke through MCAO on Day 0 and administrated with menthol once per day from Day 0 to Day 6. On the day of processing mice through MCAO, the limbs of a mouse resting 20 minutes after the operation are soaked in menthol for one minute; a mouse's limbs are soaked in menthol for 15 seconds only from Day 2 to Day 6; comparatively, a Water mouse's limbs are soaked in water. The sensorimotor nerve function test is conducted for mice one day before MCAO processing (i.e., pre-MCAO) and 1, 3 and 6 days after MCAO processing; the cerebral infarction volume is measured for checking any improvement in the stroke due to menthol on Day 7 after MCAO processing. After a mouse in each group is sacrificed through perfusion one week after MCAO processing, a specimen of the mouse's living brain is stained by TTC (FIG. 2D-2) for measurement of the cerebral infarction volume (mm^3) (FIG. 2D-1). The test results for the cerebral infarction volume are analyzed with the one-way ANOVA for further reviews through the multiple comparison analysis (Tukey's method) and statistics of between-group variances (*p<0.05). […] Laboratory mice are divided into five groups: “Water” consisting of mice which are processed for the ischemic stroke through MCAO and whose limbs are soaked in water; “8% ME” consisting of mice which are processed for the ischemic stroke through MCAO and whose limbs are soaked in 8% menthol; “16% ME” consisting of mice which are processed for the ischemic stroke through MCAO and whose limbs are soaked in 16% menthol; “Back-ME” consisting of mice which are processed for the ischemic stroke through MCAO and whose backs are soaked in menthol; “Oral-ME” consisting of mice which are processed for the ischemic stroke through MCAO and fed with menthol. […] As shown in FIGS. 4B-1 and 4B-2, the test results are analyzed with the one-way ANOVA for further reviews through the multiple comparison analysis (Duncan's method) and statistics of between-group variances (*p<0.05; *: comparison with the “Water” group; comparison with the “16% ME” group; comparison with the “8% ME” group). […]

[4] = system: Parkinson's disease mice (MPTP); assay: Rotarod test (endurance exercise test), Parkinson's disease mouse model; type: in vivo; details: forepaws soaked in 8% (wt %) menthol solution 10 seconds per day
Description: Laboratory mice are divided into three groups: “Control” consisting of normal mice; “MPTP” consisting of Parkinson's disease mice fed with MPTP for creation of a disease model; “MPTP+8% ME” consisting of Parkinson's disease mice which are fed with MPTP for creation of a disease model and whose forepaws are soaked in 8% menthol. For administration of menthol, two forepaws of each “MPTP+8% ME” mouse are soaked in 8% (wt %) menthol solution for 10 seconds per day from Day 1 to Day 5 and from Day 8 to Day 10, respectively. For creation of a Parkinson's disease mouse model, MPTP (daily dosage: 10 mg/kg) is injected into “MPTP” and “MPTP+8% ME” mice through the intraperitoneal (I.P.) injection on three consecutive days from Day 3 to Day 5. By Day 10, the endurance exercise test, the dopamine assay and the immunohistochemical staining are conducted for any improvement in the symptom of Parkinson's disease due to menthol. The rotarod test is a performance test in which a rodent keeps running on a self-accelerated rotating rod activated from 4 rpm (initial rotation rate) to 40 rpm (maximum and constant rotation rate in five minutes) on Day 1 (Day 10) for estimation of the retention time of the rodent on the rotating rod (FIG. 1B). As shown in the ordinate of FIG. 1B, “A latency to fall” denotes the difference between the retention time on Day 10 and the retention time on Day 1.

[5] = system: ischemic stroke mice (MCAO); assay: Rotarod test, ischemic stroke mouse model; type: in vivo
Description: Laboratory mice are divided into four groups: “Control” consisting of mice processed through MCAO for the ischemic stroke; “Water” consisting of mice which are processed for the ischemic stroke through MCAO and whose limbs are soaked in water; “MCAO+8% ME” consisting of mice which are processed for the ischemic stroke through MCAO and whose limbs are soaked in 8% menthol; “MCAO+16% ME” consisting of mice which are processed for the ischemic stroke through MCAO and whose limbs are soaked in 16% menthol. In Embodiment 2, menthol is prepared with 95% ethanol. Referring to the experiment schedule in FIG. 2A, mice are sacrificed on Day 7 for following analyses. Mice are processed for the ischemic stroke through MCAO on Day 0 and administrated with menthol once per day from Day 0 to Day 6. On the day of processing mice through MCAO, the limbs of a mouse resting 20 minutes after the operation are soaked in menthol for one minute; a mouse's limbs are soaked in menthol for 15 seconds only from Day 2 to Day 6; comparatively, a Water mouse's limbs are soaked in water. The sensorimotor nerve function test is conducted for mice one day before MCAO processing (i.e., pre-MCAO) and 1, 3 and 6 days after MCAO processing; the cerebral infarction volume is measured for checking any improvement in the stroke due to menthol on Day 7 after MCAO processing. In the rotarod test, a mouse is placed on a self-accelerated rotating rod (rotation rate from 4 to 40 rpm) on Day 3 and Day 6 for measuring the retention time (FIG. 2B-1 and FIG. 2B-2) and comparing test results with those of “pre-MCAO”. Mice in each group are tested three times. The test results are analyzed with the one-way ANOVA for further reviews through the multiple comparison analysis (Dunnett's method) and statistics of between-group variances (*p<0.05). The asterisk (*) means a significant difference between “Control” and “Water” or “MCAO+8% ME” (*p<0.05; **p<0.01). […] As shown in FIGS. 4B-1 and 4B-2, the test results are analyzed with the one-way ANOVA for further reviews through the multiple comparison analysis (Duncan's method) and statistics of between-group variances (*p<0.05; *: comparison with the “Water” group; comparison with the “16% ME” group; comparison with the “8% ME” group). […]

[6] = MCAO mice fed with oral menthol (Oral-ME)
[7] = MCAO mice, limbs soaked in menthol (8% ME, 16% ME), topical vs oral comparison

Question: Which “level of TH in substantia nigra” value [1] does the source give for CC1CCC(C(C)C)C(O)C1 (stereo not shown) [menthol] here?
Answer: recovered and similar to that of Control mice

Question: And the “time spent in removing stickers” value ([2]; limbs soaked in 8% or 16% menthol, Day 1, 3 and 6)?
Answer: significantly shorter than time spent by Control or Water mice

Question: And the “time spent in finding stickers” value ([2]; limbs soaked in 8% or 16% menthol, Day 6, vs Water mice)?
Answer: significantly less time

Question: What about the “time spent in finding and removing stickers” value ([2]; limbs soaked in menthol (8% ME, 16% ME), vs Water, Back-ME, Oral-ME) of the same compound?
Answer: significantly shorter than other mice

Question: And the cerebral infarction volume [3, 6]?
Answer: unchanged

Question: What about the cerebral infarction volume ([3]; MCAO mice, backs administered with menthol (Back-ME)) of the same compound?
Answer: unchanged

Question: And the cerebral infarction volume ([3]; MCAO mice, limbs soaked in 8% or 16% menthol, Day 7, TTC staining, vs Control and Water groups)?
Answer: significantly decreases

Question: What about the cerebral infarction volume [3, 7] of the same compound?
Answer: significantly subdued

Question: What about the “retention time on a rotating rod (latency to fall, Day 10 vs Day 1)” value [4] of the same compound?
Answer: longer than the retention time on Day 1

Question: And the “retention time on a rotating rod” value [5, 6]?
Answer: not extended effectively

Question: And the “retention time on a rotating rod” value ([5]; MCAO mice, backs administered with topical menthol (Back-ME))?
Answer: not extended effectively

Question: And the “retention time on a rotating rod” value ([5]; MCAO mice, limbs soaked in 8% or 16% menthol once per day Day 0 to Day 6, Day 3 and Day 6)?
Answer: longer than the retention time performed by MCAO or Water mice

Question: And the “retention time on a rotating rod” value [5, 7]?
Answer: longer than the retention time performed by Back-ME, Water or Oral-ME mice
